This assay relates to DMS 114 tumor spheroids, viability % test/control. The experiment in a line: Anticancer human tumor DMS 114 cell line growth inhibition.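 As to all read-outs here: spheroids exposed to compounds for 7 days before read-out.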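 As to viability, T/C: luminescence used as a proxy for viable cells; 100% = DMSO vehicle control viability.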 Particulars: spheroids with HUVEC and MSC; for viability, T/C: stronger effect = lower value. An outline of the steps:
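Complex spheroids of malignant cells with endothelial cells and mesenchymal stem cells; agents alone or combined, from near clinical Cmax (or 10 microM if unknown) down in half-log steps, 0.25% DMSO final.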

In the case of `COc1cc2c(cc1O)CCNC21CSC2c3c(OC(C)=O)c(C)c4c(c3C(COC1=O)N1C(O)C3Cc5cc(C)c(OC)c(O)c5C(C21)N3C)OCO4` (stereo unspecified), the viability, T/C runs as follows: (compound 30 pM) 102% [middle of 10 runs]; (compound 94.9 pM) 102% [middle of 10 runs]; (compound 0.0003 µM) 41.4% [middle of 10 runs]; (compound 0.000949 µM) 4.04% [middle of 10 runs]; (compound 0.003 µM) 0.21% [middle of 7 runs]. Moreover, where the note is “compound alone, run of 10/25/2019”, the IC50 is 0.253 nM [middle of 10 runs].

With `CC1COCCN1c1cc(-c2ccnn2C)c2ccnc(-c3ccn[nH]3)c2n1` (stereo unspecified) + COc1cc2c(cc1O)CCNC21CSC2c3c(OC(C)=O)c(C)c4c(c3C(COC1=O)N1C(O)C3Cc5cc(C)c(OC)c(O)c5C(C21)N3C)OCO4, the IC50 runs as follows: (curve of first compound, second compound 30 pM) less than 31.6 nM; (curve of first compound, second compound 94.9 pM) less than 31.6 nM; (curve of first compound, second compound 0.0003 µM) less than 31.6 nM; (curve of first compound, second compound 0.000949 µM) less than 31.6 nM; (curve of first compound, second compound 0.003 µM) less than 31.6 nM. For the same compound, the viability, T/C is 28.2% (second compound 30 pM, first compound 0.0316 µM); 21.9% (second compound 30 pM, first compound 0.1 µM); 17.3% (second compound 30 pM, first compound 0.316 µM); 11.8% (second compound 30 pM, first compound 1 µM); 7.86% (second compound 30 pM, first compound 3.16 µM); 10.1% (second compound 30 pM, first compound 10 µM). Further, the viability, T/C reads like this: (second compound 94.9 pM, first compound 0.0316 µM) 17.6%; (second compound 94.9 pM, first compound 0.1 µM) 15.9%; (second compound 94.9 pM, first compound 0.316 µM) 12.1%; (second compound 94.9 pM, first compound 1 µM) 9.53%; (second compound 94.9 pM, first compound 3.16 µM) 6.98%; (second compound 94.9 pM, first compound 10 µM) 8.67%. The viability, T/C reads like this: (second compound 0.0003 µM, first compound 0.0316 µM) 9.96%; (second compound 0.0003 µM, first compound 0.1 µM) 7.98%; (second compound 0.0003 µM, first compound 0.316 µM) 7.58%; (second compound 0.0003 µM, first compound 1 µM) 5.84%; (second compound 0.0003 µM, first compound 3.16 µM) 4.87%; (second compound 0.0003 µM, first compound 10 µM) 5.28%. For the same compound, the viability, T/C reads like this: (second compound 0.000949 µM, first compound 0.0316 µM) 1.57%; (second compound 0.000949 µM, first compound 0.1 µM) 1.39%; (second compound 0.000949 µM, first compound 0.316 µM) 1.26%; (second compound 0.000949 µM, first compound 1 µM) 0.89%; (second compound 0.000949 µM, first compound 3.16 µM) 1.12%; (second compound 0.000949 µM, first compound 10 µM) 0.45%. The viability, T/C (second compound 0.003 µM, first compound 0.0316 µM) was 0.2%; the viability, T/C (second compound 0.003 µM, first compound 0.1 µM) was 0.22%; the viability, T/C (second compound 0.003 µM, first compound 0.316 µM) is 0.15%; the viability, T/C (second compound 0.003 µM, first compound 1 µM) is 0.15%; the viability, T/C (second compound 0.003 µM, first compound 3.16 µM) is 0.12%; the viability, T/C (second compound 0.003 µM, first compound 10 µM) was 0.22%.

The term viability, T/C denotes the result in the treated group divided by that in the control group, in per cent. The term IC50 denotes the concentration at which inhibition is half-maximal.

Source of the values: PubChem BioAssay AID1845202 (Molecular Pharmacology Branch, DTP, NCI, 2023).
